Data published in patent US20020009482A1, “Proenergetic food supplement based on NADH, octocosanol and vitamin E” (priority 2000, published 2002).

Assay: Test for the stabilizing activity of Vitamin E on NADH (acid degradation in water at pH 4, 32° C.)
Format: physicochemical
Details: within 20 minutes
Protocol: TEST FOR THE STABILIZING ACTIVITY OF VITAMIN E ON NADH Two beakers are prepared containing 50 g of water at a pH 4 and a constant temperature of 32° C. 10 mg of NADH are dissolved in the first beaker and agitate. The effect of the acidity deactivates the NADH, which splits up into NAD+H. Within 20 minutes, 9.5 mg of NADH are split-up, while 0.5 mg remain unchanged. In a second beaker […] of NADH and 5 mg of Vitamin E are dissolved. The effect of the acidity deactivates the NADH, which splits up into NAD+H. Within 20 minutes, 7.5 mg of NADH are split-up, while 2.5 mg of NADH remain unchanged. The parameters of pH 4 and 32° C. for a duration of 20 minutes has been chosen as the food supplement is to be assumed in the morning on an empty stomach, 30 minutes before breakfast. This leads the tablets to easily pass the physiological stomach barrier in 20 minutes, so as reach the first portion of the intestine, where it can be absorbed and enter the blood circulating system.

[1] = 20 mg NADH with 5 mg Vitamin E in 50 g water

In the case of `NC(=O)C1=CN([C@@H]2O[C@H](COP(=O)(O)OP(=O)(O)OC[C@H]3O[C@@H](n4cnc5c(N)ncnc54)[C@H](O)[C@@H]3O)[C@@H](O)[C@H]2O)C=CC1` [NADH, nicotinamide adenine dinucleotide in a reduced form], the NADH remaining unchanged (10 mg NADH alone in 50 g water) was 0.5 mg, the “NADH split-up (into NAD+H)” value (10 mg NADH alone in 50 g water) was 9.5 mg and the NADH remaining unchanged [1] was 2.5 mg. The “NADH split-up (into NAD+H)” value [1] was 7.5 mg.
